Columns and labels:
Format in all cases: cell-based, human
[1] = system: myogenin (MYOG) mRNA; assay: MYOG mRNA expression (qPCR) in FSHD myotubes; details: multiple concentrations
Procedure: (§1) On day 0, the media was changed to differentiation media. Plates were removed from the incubator and the growth medium was aspirated, plates were washed once with PBS, 100 μL, for 96-wells and 1 mL for a 6-well plate, 100 μL, or 2 mL of differentiation medium was added per well, 96- or 6-well respectively. Antisense oligonucleotides or drug were added at the desired concentration, and the plates were put back in the incubator and incubated for 3-4 days.
(§2) Cells were removed from the incubator and media aspirated. Cells were quickly lysed following one of the following protocols: for lysis in 96-well plates, direct lysis and one-step RT-Preamp qPCR was performed according to the protocol described below. For each 96-well, a mix containing: 19.5 μL Roche Realtime Ready lysis buffer, 0.25 μL RNAse inhibitor, 0.25 μL DNAseI (from Thermo not the included one in the kit) was prepared. 20 μL of the mix was added to each well, mixed 5 times, and incubated 5 minutes at RT or alternatively shaken vigorously for 15 minutes. Lysis was observed under the microscope. Samples were frozen −80° C. at least for 15 minutes.
For qPCR, cell lysate was diluted 1:10, and 2 μL was used for a 10 μL 1-step RT-qPCR reaction for detection of GAPDH, RPLPO, TBP, MYOG, FRG1, MYH3, ACTN2, etc. Per 10 μL reaction, the reaction mix included: 2 μL of RNA (1:10 dilution lysate), 5 μL of Fast Advanced Taqman Master Mix (2×), 0.25 μL of RT enzyme mix (40×), 0.5 μL of Taqman probe set (20×), and 2.25 μL of H2O. The following reaction protocol was run on the QuantStudio 7: 48° C. for 15 min, 50° C. for 2 min, 95° C. for 30 sec, 40×, 95° C. for 5 sec, 60° C. for 30 sec, after which the plates were read as specified by the manufacturer (Thermo).
(§3) Wild type myotubes and mature patient-derived FSHD myotubes that express DUX4 protein were treated with DMSO vehicle control or multiple concentrations of various p38α/β inhibitors with different ranges of isoform and kinome selectivity, including SB239063 (FIG. 4A), VX-702 (FIG. 4B), Pamapimod (FIG. 4C), and TAK-715 (FIG. 4D). After treatment, the control and treated cells were processed for realtime PCR quantification of MBD3L2 mRNA (DUX4 downstream gene) and myogenin (MYOG) mRNA (control) expression.

[2] = system: MBD3L2 mRNA (DUX4 downstream gene); assay: MBD3L2 mRNA expression (qPCR) in FSHD myotubes
Procedure: as §1, §2
1-step RT-Preamplification was used for detection of DUX4 downstream genes, i.e., MBD3L2, ZSCAN4, LEUTX, TRIM43, KHDC1L, and POL2RA-VIC was used as endogenous control. Per 10 μL reaction, the reaction mix included: 2.25 μL of RNA (1:10 dilution lysate), 5 μL of Taqman Pre-Amp Master Mix (2×), 0.25 μL of RT enzyme mix (40×), 2.5 μL of Taqman probe set (0.2×)*. * For pooling the TaqMan Assays, equal volumes of each 20× TaqMan® Gene Expression Assay were used, and up to 100 assays were combined. For example, to pool 50 TaqMan assays, 10 μL of each assay were combined in a microcentrifuge tube. The pooled TaqMan assays were diluted using 1× TE buffer so that each assay was at a final concentration of 0.2×. For the above example, 500 μL of 1× TE buffer was added to the pooled TaqMan assays for a total final volume of 1 mL. The QuantStudio7 protocol was used at 48° C. 15 min, 95° C. 10 min, 10 cycles: 95° C. 15 sec, 60° C. 4 min, and 4° C. infinite Samples were then diluted to 50 μL and continued with the qPCR step. Per 10 μL reaction, the reaction mix included: 2 μL of Preamp dilution, 5 μL of Fast Advanced Taqman Master Mix (2×), 0.5 μL of Taqman probe set (20×), and 2.5 μL of H2O. When multiplexing, the volume was adjusted to 10 μL total. The following program was run on the QuantStudio7: 50° C. for 2 min, 95° C. for 30 sec, 40×, 95° C. for 5 sec, 60° C. for 30 sec, and plates were read as per the manufacturers specifications (Thermo).
as §3

[3] = system: DUX4-fl mRNA; assay: DUX4 / DUX4-fl mRNA expression in FSHD myotubes
Procedure: cDNA preparation. 10 μL reactions included 1 μL of RNA (1 μg), 0.5 μL of Oligo dT, 0.5 μL of 10 mM dNTPs, and 4.5 μL of H2O. Reaction samples were incubated at 65° C. for 2 min and quickly moved to ice and held at least 1 min before adding the enzyme mix, which included 2 μL of 5× First strand Buffer, 0.5 μL of 0.1M DTT, 0.5 μL of RNAse inhibitor, 0.5 μL of SSIV RT. The samples were incubated at 55° C. for 20 min and 80° C. for 10 min, followed by cool down to 4° C. […]
DUX4 qPCR with nested primers was performed in a 10 μL reaction containing 1 μL of DUX4 pre amplification DNA, 5 μL of 2× IQ SYBR Mix, 0.4 μL of 10 μM TJ38F, 0.4 μL of 10 μM TJ41R, and 3.2 μL H2O. […] 10 seconds, then the plates were read on QuantStudio7 as per manufactures instruction (Thermo). […]
Wild type myotubes were treated with DMSO control vehicle, and mature patient-derived FSHD myotubes that express DUX4 protein were treated with DMSO vehicle control or 1 μM of a DUX4 sequence-directed antisense oligonucleotide (ASO; FTX-2) purchased from Exiqon. After treatment, the myotubes were lysed in 19.5 μL of Roche Real Time Ready Lysis Buffer, 0.25 μL of DNAse1 (Ambion, AM2222), 0.25 μL of Protector RNase Inhibitor (Roche, 3335402001), and the RNA was collected in an RNeasy Micro Kit Master Mix. […]

[4] = system: ZSCAN4, TRIM43, MBD3L2, LEUTX, and KHDC1L; assay: DUX4-regulated downstream gene expression (real time PCR) in FSHD myotubes; details: 1 μM ASO
Procedure: Wild type myotubes were treated with DMSO control vehicle, and mature patient-derived FSHD myotubes that express DUX4 protein were treated with DMSO vehicle control or 1 μM of a DUX4 sequence-directed antisense oligonucleotide (ASO; FTX-2) purchased from Exiqon. After treatment, the myotubes were lysed in 19.5 μL of Roche Real Time Ready Lysis Buffer, 0.25 μL of DNAse1 (Ambion, AM2222), 0.25 μL of Protector RNase Inhibitor (Roche, 3335402001), and the RNA was collected in an RNeasy Micro Kit Master Mix. Expression levels of DUX4-regulated downstream genes (ZSCAN4, TRIM43, MBD3L2, LEUTX, and KHDC1L) was determined by real time PCR (ThermoFisher Scientific, 4484262), ZSCAN4 Taqman Assay (ThermoFisher Scientific, Hs00537549_m1, FAM-MGB), MYOG Taqman Assay (ThermoFisher Scientific, Hs01072232_m1, JUN-QSY), RPLPO Taqman Assay (ThermoFisher Scientific, Hs99999902_m1), and/or LEUTX Taqman Assay (ThermoFisher Scientific, Hs00418470_m1). Ct values were extracted from QuantStudio Realtime PCR software, and Genedata was used to calculate relative levels of expression using POLR2A as a housekeeping gene.

[5] = system: active Caspase-3; assay: Apoptosis by active Caspase-3 in FSHD myotubes; details: 1 μM; to level similar to healthy control line
Procedure: Briefly, cells were fixed in 4% paraformaldehyde and permeabilized in […] for 10 min at room temperature. Cells were permeabilized with PBST (1× PBS solution with 0.1% Triton X-100) before blocking with 10% Normal Donkey Serum or 3% BSA (NDS) in PBST. Cells were then incubated with appropriately diluted primary antibodies in PBST with 5% NDS for 1 hours at room temperature or 12 hours at 4° C., washed with PBST for 3 times at room temperature, and then incubated with desired secondary antibodies in TBST with 5% NDS and DAPI to counterstain the nuclei. DUX4 was detected by immunocytochemistry using the E5-5 antibody in differentiated FSHD myotubes. Activated Caspase-3 was detected using a commercially available antibody (https://www.cellsignal.com/products/primary-antibodies/cleaved-caspase-3-asp175-antibody/9661).
Apoptosis was measured by active Caspase-3 levels in FSHD myotubes in vitro as described in Materials and Methods. Apoptosis was detected in a sporadic manner in a subset of myotubes in culture as shown by the white circles and magnified region in FIG. 9A. Active Caspase-3 signal was quantified in FSHD myotubes that had been treated with FTX-1821 at different concentrations (FIG. 9B). […] No change in active Caspase-3 signal was observed following DMSO treatment. […]

In the case of `CCc1nc(-c2cccc(C)c2)c(-c2ccnc(NC(=O)c3ccccc3)c2)s1` [TAK-715], the “impact to MYOG mRNA expression” value [1] is reported as “no impact”.

In the case of “FTX-2: DUX4 sequence-directed antisense oligonucleotide purchased from Exiqon, CAGCGTCGGAAGGTGG (SEQ ID NO:18) (listed as DNA, chemistry not given here)”, the “MBD3L2 expression, different dilutions” value ([2]; FSHD myotubes, different dilutions of the ASO) is reported as “dose dependent reduction”, the “DUX4 expression vs DMSO vehicle control” value ([3]; 1 μM ASO) is reported as “reduced” and the “DUX4 expression, different dilutions” value ([3]; different dilutions of the ASO) is reported as “dose dependent reduction”. The “expression of DUX4 downstream target genes ZSCAN4, TRIM43, MBD3L2, LEUTX, and KHDC1L vs DMSO” value [4] was “reduced”.

With `Cn1c(=O)c(Oc2ccc(F)cc2F)cc2cnc(NC(CCO)CCO)nc21` [FTX-839, Pamapimod] the “MBD3L2 mRNA in FSHD1 and FSHD2 primary patient myoblast lines” value ([2]; 1 μM, to levels similar to healthy control lines) was “reduction”, the “MBD3L2 mRNA levels normalized to POLR2A mRNA” value ([2]; FSHD myotubes, 10, 100, and 1000 nM vs DMSO) was “dose-dependently reduced” and the “MBD3L2 expression levels in four FSHD patient lines” value ([2]; FTCE-016, -020, -197, -196 myotubes, 1 μM, to levels similar to healthy controls) was “reduced”. The “impact to MYOG mRNA expression” value [1] was “no impact” and the “apoptosis (active caspase-3) across FSHD1 and FSHD2 lines” value [5] was “reduction”.

`COc1nccc(-c2c(-c3ccc(F)cc3)ncn2C2CCC(O)CC2)n1` (stereo not drawn) [SB239063] was tested, and the “impact to MYOG mRNA expression” value [1] was “no impact”.

With `NC(=O)c1ccc(N(C(N)=O)c2c(F)cccc2F)nc1-c1ccc(F)cc1F` [VX-702] the “impact to MYOG mRNA expression” value [1] was “no impact”.

Source: US11479770B2, “Use of p38 inhibitors to reduce expression of DUX4” (Fulcrum Therapeutics, Inc., priority 2017, dated 2022)
